From patent US20100310561A1, “NATRIURETIC FUSION PROTEINS” (BOEHRINGER INGELHEIM INTERNATIONAL GMBH, priority 2007, published 2010)
Like-named read-outs stand apart in the source and are kept apart here.

How the values were obtained:
Monkey NPRA = test: cGMP assay, monkey NPRA expressing HEK293 cells; assay type: cell-based; conditions: Table 4
Protocol: (§1) Natriuretic peptides of >95% HPLC purity were obtained from Sigma. HEK293 NPRA cells grown to 90% confluence were harvested using HANKS based Cell Dissociation Medium (GIBCO). Cells were washed and resuspended at 3.3×10^5 cells per mL in pre warmed Dulbecco's PBS, pH 7.4, 25 mM HEPES, 0.1% BSA, 500 μM 3-Isobutyl-1-methylxanthine (IBMX) [Assay Buffer]. Assays were performed in Optiplate-96 White Opaque 96-well Microplates (Perkin Elmer). 15 μL of cell suspension is added to 15 μL of 2× fusion protein in Assay Buffer in triplicate and incubated for 20 minutes at 37° C. The cGMP concentration was measured using the HitHunter™ cGMP Assay Kit (DiscoveRx Corporation). cGMP production dose response curves were generated with a four parameter logistic equation fitted using the Levenburg Marquardt algorithm in XLfit4.2 data analysis software (ID Business Solutions, Ltd.).
The selectivity of the recombinant ANP-Fc fusion proteins was assessed by analyzing their efficacy in NPRB expressing cell lines. The species cross-reactivity of the ANP-Fc fusion proteins was tested in rat, canine, and monkey NPRA expressing HEK293 cell lines. The ANP-Fc fusions tested have good cross-reactivity in the rat, canine, and monkey NPRA mediated cGMP assays (Table 4). The ANP-Fc fusion proteins have nearly equivalent dose response values when tested in human, dog and monkey expressing NPRA cells. […]

Dog NPRA = test: cGMP assay, canine NPRA expressing 293 cells; assay type: cell-based
Protocol: as §1
Human ANP28 peptide was assayed for cGMP production in species specific NPRA transfected 293 or 293T cells. Dose response curves for cGMP production stimulated by human ANP28 peptide in rat NPRA (rNPRA) expressing 293T cells and human NPRA (hNPRA) and canine NPRA (caNPRA) expressing 293 cells are shown in FIG. 2.
The selectivity of the recombinant ANP-Fc fusion proteins was assessed by analyzing their efficacy in NPRB expressing cell lines. […]

[1] = humans; Potter et al.; cited from earlier work
human NPRA = molecular target: T1, human NPRA (Homo sapiens, UniProt P16066); test: Natriuretic peptide fusion protein induced cGMP assay, human NPRA transfected HEK293 cells; assay type: cell-based
T1 sequence (P16066 33-1061): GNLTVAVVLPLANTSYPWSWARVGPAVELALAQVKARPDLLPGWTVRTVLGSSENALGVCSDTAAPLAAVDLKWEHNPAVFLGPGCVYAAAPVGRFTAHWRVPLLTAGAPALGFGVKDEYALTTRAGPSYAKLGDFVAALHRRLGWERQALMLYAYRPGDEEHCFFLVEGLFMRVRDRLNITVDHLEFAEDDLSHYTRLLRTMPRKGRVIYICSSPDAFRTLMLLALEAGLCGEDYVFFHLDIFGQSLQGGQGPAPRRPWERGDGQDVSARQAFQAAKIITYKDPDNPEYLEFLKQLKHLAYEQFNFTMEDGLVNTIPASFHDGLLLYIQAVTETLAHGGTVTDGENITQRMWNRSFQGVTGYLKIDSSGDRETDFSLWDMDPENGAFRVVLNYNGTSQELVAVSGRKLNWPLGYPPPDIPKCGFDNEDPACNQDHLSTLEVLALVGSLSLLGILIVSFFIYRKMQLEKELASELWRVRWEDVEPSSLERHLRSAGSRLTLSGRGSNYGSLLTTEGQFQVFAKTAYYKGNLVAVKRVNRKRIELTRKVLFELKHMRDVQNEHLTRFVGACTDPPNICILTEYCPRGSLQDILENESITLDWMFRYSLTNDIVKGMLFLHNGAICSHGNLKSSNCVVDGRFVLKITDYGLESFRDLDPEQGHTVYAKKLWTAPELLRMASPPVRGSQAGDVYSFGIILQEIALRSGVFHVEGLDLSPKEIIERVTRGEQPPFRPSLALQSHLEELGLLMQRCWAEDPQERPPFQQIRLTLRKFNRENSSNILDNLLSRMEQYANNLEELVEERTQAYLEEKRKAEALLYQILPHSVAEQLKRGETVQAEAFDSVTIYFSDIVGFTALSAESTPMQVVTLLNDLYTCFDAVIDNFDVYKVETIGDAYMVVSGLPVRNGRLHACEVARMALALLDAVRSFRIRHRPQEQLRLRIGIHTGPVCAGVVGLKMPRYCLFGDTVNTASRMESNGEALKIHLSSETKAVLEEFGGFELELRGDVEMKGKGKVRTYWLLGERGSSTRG
Text: Full-length human NPRA, human NPRB, and human […] (NPRC) sequence containing plasmids were purchased from OriGene Technologies, Inc. (Rockville, Md.) then sub-cloned into pcDNA3.1 directional mammalian expression vector (Invitrogen). Insert orientation and nucleotide sequence of each construct was verified by an outside vendor (SeqWright, Inc.). The pcDNA3.1 NPR clones were transfected using Lipofectamine (Invitrogen) into HEK293 cells where stable cell lines expressing human NPRA, human NPRB, or human NPRC are selected using G418. Clones were screened using the natriuretic peptide induced cGMP assay described below. (NPRA clones were treated with human ANP while NPRB clones were treated with human CNP (Sigma)). High cGMP producing clones were expanded. NPRC clones were screened using a ^125I ANP binding assay. ^125I ANP high binders were expanded. […]
Natriuretic peptides of >95% HPLC purity were obtained from Sigma. […] The cGMP concentration was measured using the HitHunter™ cGMP Assay Kit (DiscoveRx Corporation). cGMP production dose response curves were generated with a four parameter logistic equation fitted using the Levenburg Marquardt algorithm in XLfit4.2 data analysis software (ID Business Solutions, Ltd.).
Results 1 from both Labs 1 and 2 were generated by interpreting the raw Relative Luminescence Units (RLU). […]

CC[C@H](C)[C@@H]1NC(=O)[C@H](CCCNC(=N)N)NC(=O)[C@H](CC(=O)O)NC(=O)[C@H](CCSC)NC(=O)[C@H](CCCNC(=N)N)NC(=O)CNC(=O)CNC(=O)[C@H](Cc2ccccc2)NC(=O)[C@@H](NC(=O)[C@H](CO)NC(=O)[C@H](CO)NC(=O)[C@H](CCCNC(=N)N)NC(=O)[C@H](CCCNC(=N)N)NC(=O)[C@H](CC(C)C)NC(=O)[C@@H](N)CO)CSSC[C@@H](C(=O)N[C@@H](CC(N)=O)C(=O)N[C@@H](CO)C(=O)N[C@@H](Cc2ccccc2)C(=O)N[C@@H](CCCNC(=N)N)C(=O)N[C@@H](Cc2ccc(O)cc2)C(=O)O)NC(=O)CNC(=O)[C@H](CC(C)C)NC(=O)CNC(=O)[C@H](CO)NC(=O)[C@H](CCC(N)=O)NC(=O)[C@H](C)NC(=O)CNC1=O [Construct 1, ANPXY]
EC50 (Monkey NPRA): 0.5 nM
EC50 (Dog NPRA; Table 4, read-out: cGMP EC50 (nM) Dog NPRA): 1.3 nM
EC50 (Dog NPRA; caNPRA 293 cells, read-out: Mean EC50 nM, cGMP-caNPRA 293): 1.34 nM

BNP: B-type natriuretic peptide
plasma half life [1]: approximately 20 minutes

Wild-type rat ANP: rat atrial natriuretic peptide, differs from human ANP by one amino acid (SLRRSSCFGGRIDRIGAQSGLGCNSFRY) [reference compound]
EC50 compared with human ANP in the human NPRA cGMP assay (human NPRA): slightly higher
